#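 Grown in 96-well plates, cells were treated for 48 hours with each compound at five concentrations. Insufficient inhibition: endpoint recorded as highest concentration tested. GI50 marks 50% less growth.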 Active and inactive are the calls of the source. Rule as the data show it: active = GI50 up to about 1.1 µM and inactive = higher.
# Key:
# Test in all cases: NCI anticancer screen, dose series, 48 h
# HCT-116 = system: HCT-116
# UO-31 = system: UO-31
# A498 = system: A498
# NCI-H23 = system: NCI-H23
# SNB-75 = system: SNB-75
# MDA-N = system: MDA-N
# UACC-257 = system: UACC-257
# A549 = system: A549
# SK-MEL-2 = system: SK-MEL-2
# HL-60 = system: HL-60
# MCF7 = system: MCF7
# CAKI-1 = system: CAKI-1
# RPMI-8226 = system: RPMI-8226
# K562 = system: K562
# Hs-578T = system: Hs-578T
# 786-0 = system: 786-0
# HCT-15 = system: HCT-15
# MDA-MB-435 = system: MDA-MB-435
# ACHN = system: ACHN
# IGROV-1 = system: IGROV-1
SMILES,GI50 (HCT-116),GI50 (UO-31),GI50 (A498),GI50 (NCI-H23),GI50 (SNB-75),GI50 (MDA-N),GI50 (UACC-257),GI50 (A549),GI50 (SK-MEL-2),GI50 (HL-60),GI50 (MCF7),GI50 (CAKI-1),GI50 (RPMI-8226),GI50 (K562),GI50 (Hs-578T),GI50 (786-0),GI50 (HCT-15) [µM],GI50 (MDA-MB-435),GI50 (ACHN),GI50 (IGROV-1)
CCOC(=O)C(SCCO)C(C(=O)OCC)n1cnc2c(N)ncnc21 (centres undefined),8.95 µM (inactive),20.7 µM (inactive),14.9 µM (inactive),14.8 µM (inactive),12.1 µM (inactive),15.8 µM (inactive),35.1 µM (inactive),44.3 µM (inactive),15.8 µM (inactive),2 µM (inactive),5.55 µM (inactive),4.31 µM (inactive),5.04 µM (inactive),3.66 µM (inactive),17.3 µM (inactive),3.03 µM (inactive),6.27,13.6 µM (inactive),10.5 µM (inactive),16.1 µM (inactive)
CCOC(=O)C1(C(=O)OCC)Nc2cccnc2N(C)N1,18.8 µM (inactive),17.4 µM (inactive),17.5 µM (inactive),20.5 µM (inactive),> 100 µM (inactive),17.5 µM (inactive),17.6 µM (inactive),96.8 µM (inactive),19.3 µM (inactive),22.8 µM (inactive),16.3 µM (inactive),19 µM (inactive),16.2 µM (inactive),22.8 µM (inactive),> 100 µM (inactive),17.9 µM (inactive),18,18.9 µM (inactive),–,22.8 µM (inactive)
C=C1C(C2(C)C(OC(C)=O)CC(=O)OC(C)(COC(C)=O)C2CC(=O)OC)C(OC=O)C(OC(=O)C(O)C(C)CC)C2(C)C(c3ccoc3)CC(=O)C12O (centres undefined),1.58 µM (inactive),3.77 µM (inactive),4.52 µM (inactive),> 73.5 µM (inactive),3.57 µM (inactive),7.26 µM (inactive),> 100 µM (inactive),3.56 µM (inactive),> 31.4 µM (inactive),0.157 µM (active),> 25.5 µM (inactive),3.27 µM (inactive),> 100 µM (inactive),4.49 µM (inactive),8.05 µM (inactive),5.98 µM (inactive),4.8,6.61 µM (inactive),4.2 µM (inactive),2.52 µM (inactive)
CSC(=Nc1nnc(-c2ccc([N+](=O)[O-])cc2)s1)SC,27.4 µM (inactive),27.9 µM (inactive),31.4 µM (inactive),27.8 µM (inactive),11.9 µM (inactive),> 72.9 µM (inactive),> 93.1 µM (inactive),46.8 µM (inactive),26.7 µM (inactive),> 100 µM (inactive),36.6 µM (inactive),16.7 µM (inactive),> 100 µM (inactive),> 100 µM (inactive),28.3 µM (inactive),20.7 µM (inactive),> 95.5,> 67.1 µM (inactive),42.9 µM (inactive),27.9 µM (inactive)
O=C(CC(O)(C(F)(F)F)C(F)(F)Cl)CC(O)(C(F)(F)F)C(F)(F)Cl (centres undefined),1.67 µM (inactive),1.44 µM (inactive),2.29 µM (inactive),1.25 µM (inactive),2.82 µM (inactive),3.21 µM (inactive),1.32 µM (inactive),2.37 µM (inactive),1.59 µM (inactive),2.99 µM (inactive),2.79 µM (inactive),2.74 µM (inactive),7.1 µM (inactive),2.76 µM (inactive),2.07 µM (inactive),3.47 µM (inactive),1.79,2.19 µM (inactive),1.77 µM (inactive),2.47 µM (inactive)
N=C(N)Nc1nc2cc([N+](=O)[O-])ccc2[nH]1,> 100 µM (inactive),93.8 µM (inactive),27 µM (inactive),68.7 µM (inactive),22.1 µM (inactive),> 100 µM (inactive),80.2 µM (inactive),> 100 µM (inactive),> 100 µM (inactive),> 100 µM (inactive),48.5 µM (inactive),> 100 µM (inactive),> 100 µM (inactive),93.5 µM (inactive),> 100 µM (inactive),> 100 µM (inactive),> 100,> 100 µM (inactive),> 100 µM (inactive),> 100 µM (inactive)
O=c1[nH]c(=O)n(C2CC(O)C(CO)O2)cc1I (centres undefined),> 100 µM (inactive),> 100 µM (inactive),> 100 µM (inactive),> 100 µM (inactive),> 100 µM (inactive),> 100 µM (inactive),> 100 µM (inactive),> 73.1 µM (inactive),> 100 µM (inactive),> 81.3 µM (inactive),18.5 µM (inactive),63.8 µM (inactive),> 43.8 µM (inactive),> 23.1 µM (inactive),> 100 µM (inactive),> 100 µM (inactive),> 100,> 100 µM (inactive),> 100 µM (inactive),> 100 µM (inactive)
